Columns and labels:
Assay type in all cases: in vivo
[1] = system: house flies; experiment: Study of knock-down activity of house flies (direct atomization in a Kearns and March chamber); settings: concentration at 0.1 g/l; female house flies 4 days old; acetone (5%) and Isopar L
Method: (1) Study of knock-down activity of house flies
The test insects were female house flies 4 days old and the test was effected by direct atomization in a Kearns and March chamber using as solvent a mixture of acetone (5%) and Isopar L (petrol solvent) (quantity of solvent used, 2 ml in one second). 50 insects were used per treatment and checks were made every minute for 10 minutes, then at 15 minutes, and the KT50 was determined by the usual methods.

[2] = system: Aphis cracivora; experiment: Study of lethal effect on Aphis cracivora (contact-ingestion method); parameters: unit not given here; settings: adults 7 days old; 1 hour contact with treated bean leaf; mortality checked after 24 hours
Method: (3) Study of lethal effect on Aphis cracivora
Adults 7 days old were used with 10 aphis per concentration using a contact-ingestion method. The treatment was carried out with a Fisher gun on a bean leaf which was placed in a plastic Petri dish on a disc of moistened paper. 2 ml of an acetone solution of the product under test were used with 1 ml per face of the leaf and the insect infestation was carried out after drying the leaf. The insects were kept in contact with the leaf for 1 hour and then they were placed on untreated leaves.

[3] = system: cockroaches (Blatella germanica); experiment: Study of activity by tarsal contact on cockroaches; settings: male Blatella germanica; 1 hour on dried acetone deposit; mortality checked at 24 hours, 48 hours, 3 days and 5 days
Method: (2) Study of activity by tarsal contact on cockroaches
The insects tested were male cockroaches (Blatella germanica) and the test was carried out by depositing an acetone solution of a certain concentration on the bottom of a Petri dish 20 cm in diameter. After this had dried, 20 male cockroaches were allowed to stay there per concentration for 1 hour, after which they were transferred to a healthy medium and their mortality was checked at 24 hours, 48 hours, 3 days and 5 days. The result was expressed as lethal concentration 50 (LC 50) in mg/m^2.

[4] = system: Tetranychus urticae; experiment: Activity on Tetranychus urticae, test of lethal effect on adults; settings: females on treated bean leaves; checked after 80 hours of contact
Method: (4) Activity on Tetranychus urticae, test of lethal effect on adults
Bean plants having two cotyledon leaves were used which were treated with a Fisher gun with an acetone solution of the product. After drying, 25 females of the acaridan Tetranychus urticae were placed on each leaf, that is 50 individuals per experimental dose per plant. The efficacity was checked after 80 hours of contact, and the LD 50 was indicated in mg/hl.

SMILES	KT 50 [1]	LD 50 [2]	lethal concentration 50 (LC 50) [3]	LD 50 [4]
C#CCn1ccc(COC(=O)[C@@H]2[C@@H](C=C(Cl)C(F)(F)F)C2(C)C)c1C#N [Example 49, [1-(2-propynyl)-2-cyano-1H-pyrrol-3-yl]-methyl 1R, trans (E,1/3) (Z,2/3) 2,2-dimethyl-3-(2-chloro-2-trifluoromethylethenyl)-cyclopropane carboxylate]	11.0 min	6.5	–	–
C#CCn1ccc(COC(=O)[C@@H]2[C@H](/C=C(\Cl)C(F)(F)F)C2(C)C)c1C#N [Example 43, [2-cyano-1-(2-propynyl)-1H-pyrrol-3-yl]-methyl (1R,cisΔZ) 2,2-dimethyl-3-[(2-chloro-3,3,3-trifluoro)-1-propenyl]-cyclopropane carboxylate]	2.9 min	7.5	2.8 mg/m^2	342 mg/hl
